Entries after “also recorded” stand apart in the source; their conditions may differ.
Assays:
Type in all cases: in vivo, mouse
[1] = test system: c-peptide; assay: c-peptide/glucagon immunofluorescence of pancreatic islets, HF-fed mice; conditions: HF diet mice 4 months; vs HF diet
Method: Indirect Immunofluorescence. Immunofluorescence assays on cells and tissue sections were performed as previously described (29). Briefly, differentiated samples were fixed using 4% (w/v) paraformaldehyde and membrane permeabilization (for cells only) was done with 0.3% (w/v) Triton-X 100 (Sigma). Unspecific sites were blocked using 2% BSA for 30 min prior to incubation with rabbit polyclonal anti-PDX1 (Millipore, 06-1379, 1:1000), rabbit anti-C-Peptide (Cell Signaling, 4593, 1:500, Danvers, Mass.) and mouse monoclonal anti-Glucagon (Abcam, ab10988, 1:200) primary antibodies. Phalloidin-TRITC (Millipore, FAK100, 1:1000, Billerica, Mass.) was used to stain the actin stress fiber network (F-actin). Nuclei were stained using DAPI contained in Vectashield® mounting medium for fluorescence (Vector labs, Burlingame, Calif.). Quantitation of C-peptide positive stained cells and islet surface area was performed using NIS-Elements Advanced Research software (Nikon).
(§1) Mice, diet, and drug treatment. WT male C57/BL6 male mice were maintained on either a standard laboratory chow-fed diet (CFD) with 13% kcal fat, (diet #5053, Lab Diet, Inc, St. Louis, Mo.) or a high fat, western style diet (HFD) with 60% kcals from fat, (diet #58126, Lab Diet, Inc., St. Louis, Mo.) for 4 months. […]

[2] = test system: HF-fed C57/BL6 mice; assay: Metabolic studies (body weight, GTT) in HF-fed wild type mice, 4 months; conditions: obese HF-fed mice, 3.0 mg/100 ml drinking water
Method: as §1, with “Dietary Obesity Studies: Wild type (wt)” for “WT”, “(Con)” for “(CFD)”, “45%” for “60%”
Metabolic Measurements-Glucose tolerance was performed using an intraperitoneal glucose tolerance test (GTT) as previously described (Trasino et al., Vitamin A Deficiency Causes Hyperglycemia and Loss of Pancreatic β-Cell Mass, J Biol Chem. 2014 Dec. 1. pii: jbc.M114.616763). […] Tail vein blood glucose was measured at 20, 40, 60 and 120 minutes after injection using a FreeStyle Lite Blood Glucose Monitoring System (Abbott Diabetes Care, Inc. Alameda, Calif.). To determine insulin secretion responses to glucose, serum fractions were isolated between 0-60 minutes post glucose injections and insulin concentrations were measured using an Ultrasensitive Insulin ELISA Kit (Alpco, Inc. Salem, N.H.). Random blood glucose measurements were taken from tail veins of 4 mice per group at 2-3 random time points daily Means are expressed as±standard error of the mean (S.E.M) and P-values were calculated using one-way analysis of variance followed by Bonferroni post-hoc analysis.

[3] = test system: HF-fed and genetically obese mice; assay: Tissue triglyceride analysis and H and E staining of liver, pancreas, kidney, muscle, adipose tissue
Excerpt: Mice, diet, and drug treatment. Dietary Obesity Studies: Wild type (wt) male C57/BL6 male mice were maintained on either a standard laboratory chow-fed diet (Con) with 13% kcal fat, (diet #5053, Lab Diet, Inc, St. Louis, Mo.) or a high fat, western style diet (HFD) with 45% kcals from fat, (diet #58126, Lab Diet, Inc., St. Louis, Mo.) for 4 months. One month after the start of the HFD treatment, the Con and HFD groups werefurther split into 3 additional groups for […] to: i) remain on either Con or HFD and the drinking water containing 1% DMSO; ii) Con or HFD and drinking water containing 3.0 mg/100 ml AC261066, a specific RARβ agonist in 1% DMSO, or iii) Con or HFD and drinking water containing 3.0 mg/100 ml of AC55649, another specific RARβ agonist in 1% DMSO. All mice remained on their diets for 4 months. […]
Tissue Triglyceride Analysis: Total tissue lipids were extracted from using the Folch method. […] Tissue triglycerides were determined enzymatically using Triglycerides Reagent kit (Invitrogen, Life Technologies, Carlsbad, Calif., USA) according to the manufacture's protocol. Tissue triglycerides were normalized to tissue protein concentrations and reported as mean±standard error of the mean (S.E.M) and P-values were calculated using one-way analysis of variance followed by Bonferroni multiple comparison test post-hoc analysis.

`CCCCOCCOc1nc(-c2ccc(C(=O)O)c(F)c2)sc1C` [AC261066] was tested, and the “c-peptide level in pancreatic islets” value [1] was “slightly reduces; also recorded: slightly decreased”, the body weights [2] was “significant reductions” and the “accumulation of liver, pancreas, kidney, muscle and adipose triglycerides” value [3] was “reduces”.

Source: patent publication US20220304945A1, “METHODS OF TREATING METABOLIC SYNDROME RELATED CONDITIONS USING RETINOIC ACID RECEPTOR AGONISTS” (Cornell University, priority 2014, published 2022)
